From patent US8093211B2, “Methods and pharmaceutical compositions for healing wounds” (Bar-Ilan University, priority 2001, dated 2012)
Each block holds one compound with its values, some of them ahead of it. No end group written: not given here. *: point of attachment. Myristoyl = CCCCCCCCCCCCCC(=O)*

Columns and labels:
[1] = system: over-expressed PKC isoforms; assay: Translocation of over-expressed PKC isoforms by PKC activator in infected keratinocytes; format: cell-based, mouse; details: stimulated for 30 minutes, 24 hours following infection
Procedure: Four day old primary keratinocytes were infected for 1 hour with isoform specific recombinant PKC adenoviruses. Twenty four hours following infection, cells were either untreated (C) or stimulated with bryostatin 1 (B) for 30 minutes, and fractionated. Protein samples were subjected to Western blotting and analyzed using isoform specific anti-PKC antibodies.
Preparation of cell extracts and Western blot analysis: For crude membrane fractions, whole cell lysates were prepared by scraping cells into PBS containing 10 μg/ml aprotinin, 10 μg/ml leupeptin, 2 μg/ml pepstatin, 1 mM PMSF, 10 mM EDTA, 200 μM NaVO4 and 10 mM NaF. After homogenization and 4 freeze/thaw cycles, lysates were spun down at 4° C. for 20 minutes in a microcentrifuge at maximal speed. The supernatant containing the soluble cytosol protein fraction was transferred to another tube. The pellet was resuspended in 250 μl PBS containing 1% Triton X-100 with protease and phosphatase inhibitors, incubated for 30 minutes at 4° C. and spun down in a microcentrifuge at maximal speed at 4° C. The supernatant contains the membrane fraction. Protein concentrations were measured using a modified Lowery assay (Bio-Rad DC Protein Assay Kit). Western blot analysis of cellular protein fractions was carried out as described (6). […]

STAT3 = assay: Insulin induced STAT3 activation and nuclear translocation in keratinocytes (immunofluorescence); format: cell-based, murine; details: 5 μM Rottlerin for 7 minutes, followed by 10^−7 M insulin for 5 minutes
Procedure: Primary keratinocytes were plated on glass slides and maintained for 5 days in low Ca^++ medium (0.05 mmol/l) until they reached 80% confluency. Cells were untreated (Cont, upper panel) or pre-treated with 5 μM Rottlerin for 7 minutes (R, lower panel), followed by 10^−7 M insulin for 5 minutes (Ins). Cells were fixed by methanol, washed and air-dried. Cultures were analyzed by immunofluorescence using antiphospho-Tyr-705-STAT3 antibody, followed by FITC conjugated secondary antibody. Cells were scanned by confocal microscopy.
Immunofluorescence: Primary keratinocytes were plated on laminin 5 coated glass slides. Two days old keratinocytes were infected with PKC adenovirus for one hour, washed twice with PBS and maintained in culture in low Ca^2+ EMEM. Twenty four hours post infection, cells were fixed in 4% paraformaldehyde for 30 minutes followed by permeabilization with 0.2% Triton for 5 minutes. For analysis, control and PKC infected keratinocytes were rinsed with PBS and incubated overnight at 4° C. with PKC antibodies (Santa Cruz) diluted in 1% BSA in PBS. […] Following two washes in PBS, slides were mounted with glycerol buffer containing 1% of p-phenylenediamine (Sigma) and fluorescence examined by laser scanning confocal imaging microscopy (MRC 1024, Bio-Rad, UK).

PKCδ [2] = assay: Translocation of PKCδ from cytosol to membrane in proliferating keratinocytes (Western blot); format: cell-based, murine; details: 10^−7 M insulin or 10^−8 M IGF1; as early as 5 minutes following stimulation
Procedure: Primary keratinocytes were isolated and plated as described in the Examples section that follows. Proliferating keratinocytes were maintained for five days in low Ca^2+ medium (0.05 mM) until they reached 80% confluency. Cells were stimulated with 10^−7 M insulin (Ins) or 10^−8 M IGF1 (IGF) for 15 minutes. Cells were lysed, as described, and 20 μg of membrane or cytosol extracts of stimulated and control unstimulated (Cont) cells were subjected to SDS-PAGE and transfer. Blots were probed with specific polyclonal antibodies to each PKC isoform.
Isolation and culture of murine keratinocytes: Primary keratinocytes were isolated from newborn skin as previously described (18). […]
Preparation of cell extracts and Western blot analysis: For crude membrane fractions, whole cell lysates were prepared by scraping cells into PBS containing 10 μg/ml aprotinin, 10 μg/ml leupeptin, 2 μg/ml pepstatin, 1 mM PMSF, 10 mM EDTA, 200 μM NaVO4 and 10 mM NaF. […] Protein concentrations were measured using a modified Lowery assay (Bio-Rad DC Protein Assay Kit). […]
In order to try and identify the endogenous factors, which activate specific PKC isoforms regulating skin proliferation, the ability of several growth factors which are known to promote keratinocyte proliferation including: EGF, KGF, insulin, PDGF and IGF1 to activate specific PKC isoforms in a growth dependent manner was assessed. […]

PKCδ [3] = assay: PKCδ kinase activity of immunoprecipitates from stimulated keratinocytes; format: cell-based, murine; details: 10^−7 M insulin or 10^−8 M IGF1 for 1, 15 or 30 minutes
Procedure: To determine PKCδ activity, five-day keratinocyte cultures were stimulated with 10^−7 M insulin (Ins) or 10^−8 M IGF1 (IGF) for the designated times (1, 15, or 30 minutes). PKCδ was immunoprecipitated from membrane (blue bars, mem) and cytosol (purple bars, cyto) fractions using specific anti-PKCδ antibody. PKCδ immunoprecipitates were analyzed for PKC activity utilizing an in vitro kinase assay as described in experimental procedures. Each bar represents the mean±SE of 3 determinations in 3 separate experiments. Values are expressed as pmol ATP/dish/min.
(§1) PKC activity: Specific PKC activity was determined in freshly prepared immunoprecipitates from keratinocyte cultures following appropriate treatments. These lysates were prepared in RIPA buffer without NaF. Activity was measured with the use of the SignaTECT Protein Kinase C Assay System (Promega, Madison, Wis., USA) according to the manufacturer's instructions. PKCα pseudosubstrate was used as the substrate in these studies.
(§2) In order to determine whether the translocation of PKCδ is sufficient for activation, kinase activity of PKC immunoprecipitates from the cytoplasm and membrane fractions of insulin and IGF1 treated keratinocytes was measured.

primary keratinocytes = assay: Keratinocyte proliferation by [3H]thymidine incorporation; format: cell-based, murine; details: for concentration of maximal induction of thymidine incorporation: stimulated for 24 hours, proliferating keratinocytes in low Ca2+
Procedure: Proliferating keratinocytes were maintained for five days in low Ca^2+ medium (0.05 mM) until they reached 80% confluence. (A) Five-day keratinocyte cultures were stimulated for 24 hours with insulin or IGF1 at the designated concentrations. (B) In parallel, keratinocytes were stimulated with 10^−7 M insulin (Ins) and increasing doses of IGF1 (IGF). At each concentration the right column (striped bar) represents proliferation observed when both hormones were added together. […] Thymidine incorporation was measured as described in experimental procedures. The results shown are representative of 6 experiments. Each bar represents the mean±SE of 3 determinations expressed as percent above control unstimulated keratinocytes.
Non-infected (light blue bars), or cells over-expressing WTPKCδ (dark blue bars) or DNPKCδ (slashed blue bars) were treated for 24 hours with 10^−7 M insulin (Ins), 10^−8 M IGF1 (IGF) or both (Ins+IGF). Thymidine incorporation was measured as described in experimental procedures. Each bar represents the mean±SE of 3 determinations in 3 experiments done on separate cultures. Values are expressed as percent of control, unstimulated cells from the same culture in each experiment.
Isolation and culture of murine keratinocytes: Primary keratinocytes were isolated from newborn skin as previously described (18). Keratinocytes were cultured in Eagle's Minimal Essential Medium (EMEM) containing 8% Chelex (Chelex-100, BioRad) treated fetal bovine serum. To maintain a proliferative basal cell phenotype, the final Ca^2+ concentration was adjusted to 0.05 mM. Experiments were performed five to seven days after plating.
Cell proliferaion: Cell proliferation was measured by [^3H]thymidine incorporation in 24 well plates. Cells were pulsed with [^3H]thymidine (1 μCi/ml) overnight. After incubation, cells were washed five times with PBS and 5% TCA was added into each well for 30 minutes. The solution was removed and cells were solubilized in 1% Triton X-100. The labeled thymidine incorporated into cells was counted in a ^3H-window of a Tricarb liquid scintillation counter.

[4] = system: incision wounds on the back of C57BL mice; assay: Effect of PKCα inhibitor and insulin on wound inflammation in vivo (Example 23); details: for Incidence of severe inflammation I wound (%): treated daily for 7 days, 1 μM of each agent, observed seven days after wounding
Procedure: Late and severe inflammatory response in wounds may suppress the process of healing, thus preventing such inflammation from development may promote the wound healing process. Accordingly, the effect of PKCα inhibitor and insulin on wound inflammation was tested in the following experiment. Wounds were effected on the back of C57BL mice by incision and were treated daily for 7 days with: (i) PBS, control; (ii) 1 μM of a PKCα inhibitor (pseudosubstrate myristolated; Calibiochem, USA); (iii) 1 μM insulin (Eli Lilly, USA); or a mixture of 1 μM PKCα inhibitor and 1 μM insulin.

[5] = system: incision wounds on the back of C57BL mice; assay: Single vs. multiple applications of insulin for wound healing in vivo (Example 20)
Procedure: Wounds were effected on the back of 8-10 week old C57BL mice by incision and were treated with different concentrations and frequencies of insulin applications (i.e., seven daily repeat applications vs. a single application). The treated mice were sacrificed seven days after wounding and the areas of treated wounds were measured. The results are presented as mm^2 wound area and each bar represents the mean of six replications±standard deviation (p<0.005).
Wounds were effected on the back of 8-10 week old C57BL mice by incision and were treated with different concentrations of insulin and frequencies of applications (i.e., seven daily repeat applications vs. a single application). Histological wound sections were performed seven days after wounding and were analyzed for epidermal and dermal closure (wound contraction). Epidermal closure was assessed by Keratin 14 (K14) antibody staining (left panel) and was considered positive if the wound was stained positive across the entire gap. The dermal closure was considered positive if both dermal wound sides could be observed under a light microscope in a single field at ×10 magnification (right panel). The results are presented as percent of wound closure over control and each bar represents the mean of six replications.
Wounds were effected on the back of 8-10 week old C57BL mice by incision and were treated as follows: (i) insulin 0.1 μM applied daily for 7 days; (ii) insulin 1 μM applied daily for 7 days; (iii) insulin 10 μM applied daily for 7 days; (iv) insulin 1 μM applied once 4 days after wounding; and (v) vehicle (PBS) control applied daily for 7 days. All mice were sacrificed seven days after wounding and their open wound areas were measured.
Since the observed wounds were covered with a scar tissue it was difficult to correctly assess the actual closure of the wound and the formation of reconstructed epidermis. Therefore the effects of insulin on epidermal and dermal closure of wounds tissue were determined by histological parameters. Epidemial closure of wounds was determined by staining wound sections with Keratin 14 antibody (K14, Babco-Convance, Richmond, Calif., USA) which highlighted the formation of basal cells at the wound gap. Dermal closure of wounds was considered positive if both wound sides the dermis could be observed in a single field observed under a light microscope at ×10 magnification.

PKCs α, ε, η, or ζ = assay: Kinase activity of other PKC isoforms after insulin stimulation of keratinocytes; format: cell-based, murine; details: up to 30 minutes following insulin stimulation
Procedure: as §1, §2

Compound: CCC/C=C/C=C/C(=O)O[C@H]1/C(=C/C(=O)OC)C[C@H]2C[C@H]([C@@H](C)O)OC(=O)C[C@H](O)C[C@@H]3C[C@H](OC(C)=O)C(C)(C)[C@](O)(C[C@@H]4C/C(=C/C(=O)OC)C[C@H](/C=C/C(C)(C)[C@]1(O)O2)O4)O3 [bryostatin 1]
translocation of PKCα and δ proteins to the membrane fraction [1]: induced translocation
translocation of PKCη and ζ isoforms to the membrane fraction [1]: lesser effect

Compound: CC(=O)c1c(O)c(C)c(O)c(Cc2c(O)c3c(c(C(=O)/C=C/c4ccccc4)c2O)OC(C)(C)C=C3)c1O [rottlerin]
activation and nuclear translocation of STAT3 after insulin (STAT3): inhibits activation as well as nuclear translocation of STAT3

Compound: IGF1: growth factor IGF1, a gift from Cytolab (Israel)
translocation of PKCδ between cytoplasm and membrane fractions (PKCδ [2]): reduced PKCδ expression in the membrane
activity of PKCδ in the membrane fraction (PKCδ [3]): insulin but not IGF1 increased activity of PKCδ
maximal stimulation of thymidine incorporation, compared at each concentration (primary keratinocytes; 24 hours): greater than that by insulin
concentration of maximal induction of thymidine incorporation (primary keratinocytes): 10^−8 M

Compound: PKCα inhibitor: PKCα inhibitor of SEQ ID NO:1, PKCα pseudosubstrate myristoylated; Calbiochem (Myristoyl-FARKGALRQ)
decrease of severe wound inflammation incidence, as compared to control ([4]; 1 μM daily for 7 days): 33.3%
Incidence of severe inflammation I wound (%) [4]: 40.0%

activation of PKCs α, ε, η, or ζ (PKCs α, ε, η, or ζ): no activation
activity of PKCδ in the membrane fraction (PKCδ [3]): increased activity of PKCδ
Compound: insulin: humulinR-recombinant human insulin, purchased from Eli Lilly
effect on severe wound inflammation ([4]; 1 μM daily for 7 days): not effective
Incidence of severe inflammation I wound (%) [4]: 56.0%
open wound area ([5]; 1 μM applied once 4 days after wounding, compared with seven repeat daily applications at 1 μM): substantially more effective
open wound area ([5]; 1 μM daily for 7 days, compared with daily 0.1 μM or 10 μM): significantly more effective
epidermal and dermal closure (histology) ([5]; 1 μM daily, compared with daily 0.1 μM or 10 μM): significantly more effective
epidermal and dermal closure (histology) ([5]; all insulin treatments (0.1, 1, 10 μM daily; 1 μM single)): effectively promoted epidermal and dermal closure
epidermal and dermal closure (histology) ([5]; single application 1 μM, compared with seven repeat daily applications at 1 μM): substantially more effective
translocation of PKCδ between cytoplasm and membrane fractions (PKCδ [2]): specifically induced translocation of PKCδ from the cytoplasm to the membranal fractions
concentration of maximal induction of thymidine incorporation (primary keratinocytes): 10^−7 M
increase of thymidine incorporation over untreated cells (primary keratinocytes; untransfected cells, 10^−7 M insulin for 24 hours): two to three fold
